In patent US20070014803A1, “METHODS AND COMPOSITIONS FOR DIAGNOSIS AND TREATMENT OF VIRAL AND BACTERIAL INFECTIONS” (Arbor Vita Corporation, priority 2005, published 2007):
Where no end group is shown, it is not given here.

Columns and labels:
Experiment in all cases: PRISM Matrix ELISA G assay, peptide titration
Format in all cases: binding
[1] = biological target: T1, PDZ protein ZO-1 d2 (domain 2) (Homo sapiens, UniProt Q07157, DEL264-264); conditions: for EC50: read-out: EC50 of binding to the PDZ protein ZO-1 d2, regular G assay titration, GST/PDZ fusion (FIG. 1B, FIG. 4B); for binding to the PDZ protein ZO-1 d2, in words: summary of the titrations
T1 construct: made in house
T1 sequence (Q07157 with tags, fused parts or gaps DEL264-264): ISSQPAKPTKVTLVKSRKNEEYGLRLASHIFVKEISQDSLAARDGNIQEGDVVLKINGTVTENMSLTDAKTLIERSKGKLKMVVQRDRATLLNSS
Procedure: (§1) (1) A PDZ-domain polypeptide is bound to a surface, e.g. a protein binding surface. In a preferred embodiment, a GST/PDZ fusion protein containing one or more PDZ domains is bound to a polystyrene 96-well plate. […] In one embodiment, the GST/PDZ fusion protein is bound via an anti-GST antibody that is coated onto the 96-well plate. Adequate binding to the plate can be achieved when: • a. 100 μL per well of 5 μg/mL goat anti-GST polyclonal antibody (Pierce) in PBS is added to a polystyrene 96-well plate (e.g., Nunc Polysorb) at 4° C. for 12 hours. • b. The plate is blocked by addition of 200 μL per well of PBS/BSA for 2 hours at 4° C. • c. The plate is washed 3 times with PBS. • d. 50 μL per well of 5 μg/mL GST/PDZ fusion protein) or, as a negative control, GST polypeptide alone (i.e. not a fusion protein) in PBS/BSA is added to the plate for 2 hours at 4° C. • e. the plate is again washed 3 times with PBS.
(§2) (2) Biotinylated PL peptides are allowed to react with the surface by addition of 50 μL per well of 20 μM solution of the biotinylated peptide in PBS/BSA for 10 minutes at 4° C., followed by an additional 20 minute incubation at 25° C. The plate is washed 3 times with ice cold PBS.
(§3) (3) The binding of the biotinylated peptide to the GST/PDZ fusion protein surface can be detected using a variety of methods and detectors. In an exemplary procedure, 100 μL per well of 0.5 μg/mL streptavidin-horse radish peroxidase (HRP) conjugate dissolved in BSA/PBS is added and allowed to react for 20 minutes at 4° C. The plate is then washed 5 times with 50 mM Tris pH 8.0 containing 0.2% Tween 20, and developed by addition of 100 μL per well of HRP-substrate solution (TMB, Dako) for 20 minutes at room temperature (RT). The reaction of the HRP and its substrate is terminated by addition of 100 μL per well of 1 M sulfuric acid, and the optical density (O.D.) of each well of the plate is read at […].
(§4) (4) Specific binding of a PL peptide and a PDZ domain polypeptide is determined by comparing the signal from the well(s) in which the PL peptide and PDZ domain polypeptide are combined, with the background signal(s). The background signal is the signal found in the negative control(s). Typically a specific or selective reaction is at least twice background signal, more typically more than 5 times background, and most typically 10 or more times the background signal. In addition, a statistically significant reaction involves multiple measurements of the reaction with the signal and the background differing by at least two standard errors, more typically four standard errors, and most typically six or more standard errors. Correspondingly, a statistical test (e.g. a T-test) comparing repeated measurements of the signal with -repeated measurements of the background will result in a p-value <0.05, more typically a p-value <0.01, and most typically a p-value <0.001 or less. As noted, in an embodiment of the “G” assay, the signal from binding of a given PL peptide to immobilized (surface bound) GST polypeptide alone is one suitable negative control (sometimes referred to as “B 1”). Because all measurement are done in multiples (i.e. at least duplicate) the arithmetic mean (or, equivalently, average) of several measurements is used in determining the binding, and the standard error of the mean is used in determining the probable error in the measurement of the binding. The standard error of the mean of N measurements equals the square root of the following: the sum of the squares of the difference between each measurement and the mean, divided by the product of (N) and (N−1). Thus, in one embodiment, specific binding of the PDZ protein to the platebound peptide is determined by comparing the mean signal (“mean S”) and standard error of the signal (“SE”) for a particular PL-PDZ combination with the mean B I.
(§5) Two different types of ELISA assays were used to test the HIV Peptides 1904 and 1905. […]

PDZ protein NSP = biological target: T2, PDZ protein NSP (Homo sapiens, UniProt Q92743); conditions: for binding to the PDZ protein NSP, in words: summary of the titrations
T2 construct: made in house
Procedure: as §1, §2, §3, §4, §5

PDZ protein Rim2 = biological target: T3, PDZ protein Rim2 (Homo sapiens, UniProt Q9UQ26); conditions: for EC50: read-out: EC50 of binding to the PDZ protein Rim2, regular G assay titration, GST/PDZ fusion (FIG. 1C, FIG. 4C); for binding to the PDZ protein Rim2, in words: summary of the titrations
T3 construct: made in house
T3 sequence (Q9UQ26 632-757): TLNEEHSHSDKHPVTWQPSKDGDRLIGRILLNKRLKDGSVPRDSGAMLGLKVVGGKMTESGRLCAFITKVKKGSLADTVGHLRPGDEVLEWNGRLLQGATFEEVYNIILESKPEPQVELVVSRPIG
Procedure: as §1, §2, §3, §4, §5

T2 sequence (Q92743 359-473): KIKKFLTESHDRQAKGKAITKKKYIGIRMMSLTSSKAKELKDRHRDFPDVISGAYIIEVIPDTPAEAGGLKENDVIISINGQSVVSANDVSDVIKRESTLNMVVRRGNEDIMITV

Substance	EC50 [1]	binding to the PDZ protein ZO-1 d2, in words [1]	EC50 (PDZ protein NSP; read-out: EC50 of binding to the PDZ protein NSP, regular G assay titration, GST/PDZ fusion (FIG. 1D, FIG. 4D))	binding to the PDZ protein NSP, in words (PDZ protein NSP)	EC50 (PDZ protein Rim2)	binding to the PDZ protein Rim2, in words (PDZ protein Rim2)
YGRKKRRQRRRRQGFERALL-OH [Peptide 1905]	184 nM	strong binding	166 nM	strong binding	182 nM	strong binding
YGRKKRRQRRRRQGLERILL-OH [Peptide 1904]	170 nM	strong binding	–	strong binding	410 nM	strong binding
